Tested on: isolated rodent islets
Assay: Glucagon secretion by isolated rodent islets in culture at varying glucose concentrations, 1 hr PAM treatment, glucagon by ELISA
Type: cell-based
Protocol: In an in vitro approach, isolated rodent islets maintained in culture in 96-well plates are treated for 1 hr with PAMs. Simultaneous with addition of PAMs, islets are exposed by media exchange to glucose concentrations ranging from hypoglycemic to hyperglycemic: e.g., 2 mM, 6 mM, 12 mM, 18 mM, etc. At the end of a 1 hour PAM treatment in varying glucose concentrations, glucagon levels in each treatment condition are then measured by ELISA.

[1] = euglycemic and hyperglycemic conditions

## CC(CNS(=O)(=O)C(C)C)c1ccc(-c2ccc(C#N)cc2)cc1 (stereo not drawn) [LY404187]
[1]
  amount of glucagon released into a culture media by isolated islets: not
Hypoglycemic conditions
  amount of glucagon released into a culture media by isolated islets: dose-dependently upregulate

## O=C1c2cccnc2OC[C@@H]2CCCN12 [ORG26576]
[1]
  amount of glucagon released into a culture media by isolated islets: not
Hypoglycemic conditions
  amount of glucagon released into a culture media by isolated islets: dose-dependently upregulate

## COc1ccc(C(=O)N2CCCC2=O)cc1 [aniracetam]
[1]
  amount of glucagon released into a culture media by isolated islets: not
Hypoglycemic conditions
  amount of glucagon released into a culture media by isolated islets: dose-dependently upregulate

From patent US20200397751A1, “Modulation of AMPA/kainate Receptors for the Treatment of Hypoglycemia” (priority 2017, published 2020)
